Results reported in ChEMBL document CHEMBL3046451, “Design, synthesis, characterization, and in vitro antimicrobial action of novel trisubstituted s-triazines” (2012).
Converted amounts (≈) assume the structure as drawn.

Experiments:
[1] = system: Bacillus cereus; assay: Antibacterial activity against Bacillus cereus MTCC 619 after 24 hr by paper disk diffusion method; assay type: functional
[2] = system: Escherichia coli; assay: Antibacterial activity against Escherichia coli MTCC 739 after 24 hr by paper disk diffusion method; assay type: functional
[3] = system: Staphylococcus aureus; assay: Antibacterial activity against Staphylococcus aureus MTCC 96 after 24 hr by agar streak dilution method; assay type: functional; settings: MTCC 96, 24 h
[4] = system: Candida albicans; assay: Antifungal activity against Candida albicans MTCC 183 after 48 hr by agar streak dilution method; assay type: functional; settings: MTCC 183, 48 h
[5] = system: Bacillus cereus; assay: Antibacterial activity against Bacillus cereus MTCC 619 after 24 hr by agar streak dilution method; assay type: functional; settings: MTCC 619, 24 h
[6] = system: Pseudomonas aeruginosa; assay: Antibacterial activity against Pseudomonas aeruginosa MTCC 741 after 24 hr by agar streak dilution method; assay type: functional; settings: MTCC 741, 24 h
[7] = system: Aspergillus niger; assay: Antifungal activity against Aspergillus niger MTCC 282 after 24 hr by paper disk diffusion method; assay type: functional
[8] = system: Pseudomonas aeruginosa; assay: Antibacterial activity against Pseudomonas aeruginosa MTCC 741 after 24 hr by paper disk diffusion method; assay type: functional
[9] = system: Shigella flexneri; assay: Antibacterial activity against Shigella flexneri MTCC 1457 after 24 hr by agar streak dilution method; assay type: functional; settings: MTCC 1457, 24 h
[10] = system: Staphylococcus aureus; assay: Antibacterial activity against Staphylococcus aureus MTCC 96 after 24 hr by paper disk diffusion method; assay type: functional
[11] = system: Proteus vulgaris; assay: Antibacterial activity against Proteus vulgaris MTCC 1771 after 24 hr by agar streak dilution method; assay type: functional; settings: MTCC 1771, 24 h
[12] = system: Klebsiella pneumoniae; assay: Antibacterial activity against Klebsiella pneumoniae MTCC 109 after 24 hr by agar streak dilution method; assay type: functional; settings: MTCC 109, 24 h
[13] = system: Klebsiella pneumoniae; assay: Antibacterial activity against Klebsiella pneumoniae MTCC 109 after 24 hr by paper disk diffusion method; assay type: functional
[14] = system: Aspergillus niger; assay: Antifungal activity against Aspergillus niger MTCC 282 after 48 hr by agar streak dilution method; assay type: functional; settings: MTCC 282, 48 h
[15] = system: Salmonella typhi; assay: Antibacterial activity against Salmonella enterica subsp. enterica serovar Typhi MTCC 733 after 24 hr by agar streak dilution method; assay type: functional; settings: MTCC 733, 24 h
[16] = system: Escherichia coli; assay: Antibacterial activity against Escherichia coli MTCC 739 after 24 hr by agar streak dilution method; assay type: functional; settings: MTCC 739, 24 h
[17] = system: Candida albicans; assay: Antifungal activity against Candida albicans MTCC 183 after 24 hr by paper disk diffusion method; assay type: functional
[18] = system: Proteus vulgaris; assay: Antibacterial activity against Proteus vulgaris MTCC 1771 after 24 hr by paper disk diffusion method; assay type: functional
[19] = system: Salmonella typhi; assay: Antibacterial activity against Salmonella enterica subsp. enterica serovar Typhi MTCC 733 after 24 hr by paper disk diffusion method; assay type: functional
[20] = system: Shigella flexneri; assay: Antibacterial activity against Shigella flexneri MTCC 1457 after 24 hr by paper disk diffusion method; assay type: functional
[21] = system: Bacillus cereus; assay: Antibacterial activity against Bacillus cereus MTCC 619 at 50 ug/disk after 24 hr by paper disk diffusion method; assay type: functional; settings: MTCC 619, 24 h, read-out: IZ
[22] = system: Shigella flexneri; assay: Antibacterial activity against Shigella flexneri MTCC 1457 at 50 ug/disc after 24 hr by paper disk diffusion method; assay type: functional; settings: MTCC 1457, 24 h, read-out: IZ
[23] = system: Proteus vulgaris; assay: Antibacterial activity against Proteus vulgaris MTCC 1771 at 50 ug/disk after 24 hr by paper disk diffusion method; assay type: functional; settings: MTCC 1771, 24 h, read-out: IZ
[24] = system: Staphylococcus aureus; assay: Antibacterial activity against Staphylococcus aureus MTCC 96 at 50 ug/disc after 24 hr by paper disk diffusion method; settings: MTCC 96, 24 h, read-out: IZ
[25] = system: Pseudomonas aeruginosa; assay: microbe, parasite or virus in culture; settings: MTCC 741, 24 h, read-out: IZ
Description: Antibacterial activity against Pseudomonas aeruginosa MTCC 741 at 50 ug/disk after 24 hr by paper disk diffusion method

[26] = system: Salmonella typhi; assay: Antibacterial activity against Salmonella enterica subsp. enterica serovar Typhi MTCC 733 at 50 ug/disk after 24 hr by paper disk diffusion method; assay type: functional; settings: MTCC 733, 24 h, read-out: IZ
[27] = system: Escherichia coli; assay: microbe, parasite or virus in culture; settings: MTCC 739, 24 h, read-out: IZ
Description: Antibacterial activity against Escherichia coli MTCC 739 at 50 ug/disk after 24 hr by paper disk diffusion method

[28] = system: Klebsiella pneumoniae; assay: microbe, parasite or virus in culture; settings: MTCC 109, 24 h, read-out: IZ
Description: Antibacterial activity against Klebsiella pneumoniae MTCC 109 at 50 ug/disk after 24 hr by paper disk diffusion method

[29] = system: Aspergillus niger; assay: Antifungal activity against Aspergillus niger MTCC 282 at 50 ug/disk after 24 hr by paper disk diffusion method; assay type: functional; settings: MTCC 282, 24 h, read-out: IZ
[30] = system: Candida albicans; assay: Antifungal activity against Candida albicans MTCC 183 at 50 ug/disk after 24 hr by paper disk diffusion method; assay type: functional; settings: MTCC 183, 24 h, read-out: IZ

Structure (SMILES) | inhibition zone (IZ) [1] | inhibition zone (IZ) [2] | MIC [3] | MIC [4] | MIC [5] | MIC [6] | inhibition zone (IZ) [7] | inhibition zone (IZ) [8] | MIC [9] | inhibition zone (IZ) [10] | MIC [11] | MIC [12] | inhibition zone (IZ) [13] | MIC [14] | MIC [15] | MIC [16] | inhibition zone (IZ) [17] | inhibition zone (IZ) [18] | inhibition zone (IZ) [19] | inhibition zone (IZ) [20] | other results
Cn1c(=O)cc(Oc2nc(NCc3ccccc3)nc(Nc3ccc(C#N)cc3)n2)c2ccccc21 | 10 mm | 9 mm | 12.5 µg/mL (≈ 26.3 µM) | > 50 µg/mL | 50 µg/mL (≈ 105 µM) | 50 µg/mL (≈ 105 µM) | <5 mm | 7 mm | 50 µg/mL (≈ 105 µM) | 13 mm | 50 µg/mL (≈ 105 µM) | 12.5 µg/mL (≈ 26.3 µM) | 15 mm | > 50 µg/mL | 50 µg/mL (≈ 105 µM) | 50 µg/mL (≈ 105 µM) | <5 mm | <5 mm | <5 mm | 6 mm | 
COc1ccc2[nH]cc(CCNc3nc(Nc4ccc(C#N)cc4)nc(Oc4cc(=O)n(C)c5ccccc45)n3)c2c1 | 13 mm | 9 mm | 6.25 µg/mL (≈ 11.2 µM) | 25 µg/mL (≈ 44.8 µM) | 25 µg/mL (≈ 44.8 µM) | 50 µg/mL (≈ 89.5 µM) | 12 mm | 9 mm | 50 µg/mL (≈ 89.5 µM) | 15 mm | 50 µg/mL (≈ 89.5 µM) | 50 µg/mL (≈ 89.5 µM) | 10 mm | 25 µg/mL (≈ 44.8 µM) | 50 µg/mL (≈ 89.5 µM) | 50 µg/mL (≈ 89.5 µM) | 15 mm | 6 mm | <5 mm | 12 mm | 
O=C(O)c1cn(C2CC2)c2cc(N3CCNCC3)c(F)cc2c1=O [CIPROFLOXACIN] |  |  | 1 µg/mL (≈ 3.02 µM) |  | 1 µg/mL (≈ 3.02 µM) | 1 µg/mL (≈ 3.02 µM) |  |  | ≤ 3 µg/mL |  | 1 µg/mL (≈ 3.02 µM) | 1 µg/mL (≈ 3.02 µM) |  |  | 1 µg/mL (≈ 3.02 µM) |  |  |  |  |  | zone of inhibition at 50 µg/disc [21]: 16 mm; zone of inhibition at 50 µg/disc [22]: 17 mm; zone of inhibition at 50 µg/disc [23]: 17 mm; zone of inhibition at 50 µg/disc [24]: 17 mm; zone of inhibition at 50 µg/disc [25]: 15 mm; zone of inhibition at 50 µg/disc [26]: 16 mm; zone of inhibition at 50 µg/disc [27]: 18 mm; zone of inhibition at 50 µg/disc [28]: 16 mm
Cn1c(=O)cc(Oc2nc(Nc3ccc(C#N)cc3)nc(NC3CC3)n2)c2ccccc21 | 11 mm | 7 mm | 50 µg/mL (≈ 118 µM) | 50 µg/mL (≈ 118 µM) | 25 µg/mL (≈ 58.8 µM) | 50 µg/mL (≈ 118 µM) | 10 mm | 6 mm | 50 µg/mL (≈ 118 µM) | <5 mm | 50 µg/mL (≈ 118 µM) | 25 µg/mL (≈ 58.8 µM) | 11 mm | 50 µg/mL (≈ 118 µM) | 50 µg/mL (≈ 118 µM) | 50 µg/mL (≈ 118 µM) | 8 mm | 8 mm | <5 mm | <5 mm | 
CC(=O)N1CCN(c2ccc(OCC3COC(Cn4ccnc4)(c4ccc(Cl)cc4Cl)O3)cc2)CC1 (centres undefined) [KETOCONAZOLE] |  |  |  | 1 µg/mL (≈ 1.88 µM) |  |  |  |  |  |  |  |  |  | ≤ 3 µg/mL |  |  |  |  |  |  | zone of inhibition at 50 µg/disc [29]: 16 mm; zone of inhibition at 50 µg/disc [30]: 17 mm
Cn1c(=O)cc(Oc2nc(Nc3ccc(C#N)cc3)nc(NC3CCCCC3)n2)c2ccccc21 | 10 mm | 8 mm | 6.25 µg/mL (≈ 13.4 µM) | 50 µg/mL (≈ 107 µM) | 50 µg/mL (≈ 107 µM) | 50 µg/mL (≈ 107 µM) | 9 mm | <5 mm | 50 µg/mL (≈ 107 µM) | 14 mm | 50 µg/mL (≈ 107 µM) | 12.5 µg/mL (≈ 26.7 µM) | 13 mm | 50 µg/mL (≈ 107 µM) | 50 µg/mL (≈ 107 µM) | 50 µg/mL (≈ 107 µM) | 10 mm | 7 mm | <5 mm | 9 mm | 
